Test system: Transport facilitation protein genes
Assay: DNA chip mRNA expression in yeast, transport facilitation protein genes (Table 5)
Format: cell-based, Saccharomyces cerevisiae S288C
In short: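 Whole-genome yeast DNA chip hybridization (65° C., >12 h) of Cy-labeled cDNA from S288C cells exposed 2 h at 25° C. to a sub-lethal toxicant dose in YPD; value is intensity relative to chemical-free control.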

manganese ethylenebis(dithiocarbamate) [(8)]
The level of expressed mRNA in the presence of chemical substance/The level of expressed mRNA in the absence of chemical substance (yeast gene YBL030C): 0.8
The level of expressed mRNA in the presence of chemical substance/The level of expressed mRNA in the absence of chemical substance (yeast gene YBL099W): 0.8
The level of expressed mRNA in the presence of chemical substance/The level of expressed mRNA in the absence of chemical substance (yeast gene YBR052C): 1.3
The level of expressed mRNA in the presence of chemical substance/The level of expressed mRNA in the absence of chemical substance (yeast gene YBR068C): 1.0
The level of expressed mRNA in the presence of chemical substance/The level of expressed mRNA in the absence of chemical substance (yeast gene YBR127C): 1.1
The level of expressed mRNA in the presence of chemical substance/The level of expressed mRNA in the absence of chemical substance (yeast gene YBR132C): 0.8
The level of expressed mRNA in the presence of chemical substance/The level of expressed mRNA in the absence of chemical substance (yeast gene YBR207W): 0.9
The level of expressed mRNA in the presence of chemical substance/The level of expressed mRNA in the absence of chemical substance (yeast gene YBR293W): 0.9
The level of expressed mRNA in the presence of chemical substance/The level of expressed mRNA in the absence of chemical substance (yeast gene YBR294W): 1.0
The level of expressed mRNA in the presence of chemical substance/The level of expressed mRNA in the absence of chemical substance (yeast gene YBR295W): 0.9
The level of expressed mRNA in the presence of chemical substance/The level of expressed mRNA in the absence of chemical substance (yeast gene YBR298C): 0.5
The level of expressed mRNA in the presence of chemical substance/The level of expressed mRNA in the absence of chemical substance (yeast gene YCL025C): 0.7
The level of expressed mRNA in the presence of chemical substance/The level of expressed mRNA in the absence of chemical substance (yeast gene YCL038C): 1.2
The level of expressed mRNA in the presence of chemical substance/The level of expressed mRNA in the absence of chemical substance (yeast gene YCR024C-A): 0.8
The level of expressed mRNA in the presence of chemical substance/The level of expressed mRNA in the absence of chemical substance (yeast gene YCR037C): 0.7
The level of expressed mRNA in the presence of chemical substance/The level of expressed mRNA in the absence of chemical substance (yeast gene YCR098C): 1.0
The level of expressed mRNA in the presence of chemical substance/The level of expressed mRNA in the absence of chemical substance (yeast gene YDL128W): 0.8
The level of expressed mRNA in the presence of chemical substance/The level of expressed mRNA in the absence of chemical substance (yeast gene YDL198C): 1.1
The level of expressed mRNA in the presence of chemical substance/The level of expressed mRNA in the absence of chemical substance (yeast gene YDL210W): 1.1
The level of expressed mRNA in the presence of chemical substance/The level of expressed mRNA in the absence of chemical substance (yeast gene YDL245C): 1.2
The level of expressed mRNA in the presence of chemical substance/The level of expressed mRNA in the absence of chemical substance (yeast gene YDR038C): 0.9
The level of expressed mRNA in the presence of chemical substance/The level of expressed mRNA in the absence of chemical substance (yeast gene YDR039C): 0.6
The level of expressed mRNA in the presence of chemical substance/The level of expressed mRNA in the absence of chemical substance (yeast gene YDR086C): 1.9
The level of expressed mRNA in the presence of chemical substance/The level of expressed mRNA in the absence of chemical substance (yeast gene YDR270W): 1.2
The level of expressed mRNA in the presence of chemical substance/The level of expressed mRNA in the absence of chemical substance (yeast gene YDR298C): 1.2
The level of expressed mRNA in the presence of chemical substance/The level of expressed mRNA in the absence of chemical substance (yeast gene YDR342C): 1.2
The level of expressed mRNA in the presence of chemical substance/The level of expressed mRNA in the absence of chemical substance (yeast gene YDR343C): 1.2
The level of expressed mRNA in the presence of chemical substance/The level of expressed mRNA in the absence of chemical substance (yeast gene YDR345C): 1.2
The level of expressed mRNA in the presence of chemical substance/The level of expressed mRNA in the absence of chemical substance (yeast gene YDR387C): 0.7
The level of expressed mRNA in the presence of chemical substance/The level of expressed mRNA in the absence of chemical substance (yeast gene YDR497C): 0.6
The level of expressed mRNA in the presence of chemical substance/The level of expressed mRNA in the absence of chemical substance (yeast gene YEL027W): 0.9
The level of expressed mRNA in the presence of chemical substance/The level of expressed mRNA in the absence of chemical substance (yeast gene YEL063C): 0.6
The level of expressed mRNA in the presence of chemical substance/The level of expressed mRNA in the absence of chemical substance (yeast gene YEL065W): 0.9
The level of expressed mRNA in the presence of chemical substance/The level of expressed mRNA in the absence of chemical substance (yeast gene YER053C): 1.3
The level of expressed mRNA in the presence of chemical substance/The level of expressed mRNA in the absence of chemical substance (yeast gene YFL011W): 0.8
The level of expressed mRNA in the presence of chemical substance/The level of expressed mRNA in the absence of chemical substance (yeast gene YFL041W): 1.0
The level of expressed mRNA in the presence of chemical substance/The level of expressed mRNA in the absence of chemical substance (yeast gene YFL050C): 0.9
The level of expressed mRNA in the presence of chemical substance/The level of expressed mRNA in the absence of chemical substance (yeast gene YFL054C): 1.5
The level of expressed mRNA in the presence of chemical substance/The level of expressed mRNA in the absence of chemical substance (yeast gene YGL006W): 0.9
The level of expressed mRNA in the presence of chemical substance/The level of expressed mRNA in the absence of chemical substance (yeast gene YGL008C): 0.7
The level of expressed mRNA in the presence of chemical substance/The level of expressed mRNA in the absence of chemical substance (yeast gene YGL104C): 0.8
The level of expressed mRNA in the presence of chemical substance/The level of expressed mRNA in the absence of chemical substance (yeast gene YGL167C): 0.8
The level of expressed mRNA in the presence of chemical substance/The level of expressed mRNA in the absence of chemical substance (yeast gene YGL255W): 0.7
The level of expressed mRNA in the presence of chemical substance/The level of expressed mRNA in the absence of chemical substance (yeast gene YGR055W): 1.1
The level of expressed mRNA in the presence of chemical substance/The level of expressed mRNA in the absence of chemical substance (yeast gene YGR065C): 1.0
The level of expressed mRNA in the presence of chemical substance/The level of expressed mRNA in the absence of chemical substance (yeast gene YGR082W): 0.8
The level of expressed mRNA in the presence of chemical substance/The level of expressed mRNA in the absence of chemical substance (yeast gene YGR096W): 1.0
The level of expressed mRNA in the presence of chemical substance/The level of expressed mRNA in the absence of chemical substance (yeast gene YGR138C): 1.0
The level of expressed mRNA in the presence of chemical substance/The level of expressed mRNA in the absence of chemical substance (yeast gene YGR191W): 0.7
The level of expressed mRNA in the presence of chemical substance/The level of expressed mRNA in the absence of chemical substance (yeast gene YGR197C): 0.8
